Experimental data from US12291513B2, “Pyridinium derivatives made by hydrothermal synthesis for use as anolytes in electrochemical cells” (Wisconsin Alumni Research Foundation, priority 2021, dated 2025).
Like-named read-outs stand apart in the source and are kept apart here. Marks after values point to notes of the source that are not given here.

Assays:
[1] = same electrolyte conditions; cited from earlier work
[2] = cited from earlier work; for Anolyte-limiting RFB Stability / RFB Viologen Molarity (1e^−): Table 1, comparison anolytes
[3] = Cyclic voltammetry (formal potentials, Randles-Sevcik diffusion coefficients); assay type: physicochemical
Description: (§1) CV and EIS experiments were ran using a PalmSens4 potentiostat with the PSTrace software. Electrochemical experiments were performed in 1.0 M NaCl supporting electrolyte using 15 mM of active material at room temperature (18° C.). Formal potentials for the redox couples were estimated by taking the average potential between the cathodic and anodic peak. Diffusional behavior was investigated by varying the scan rate between 10-100 mV·s^−1 for the first electron reduction and 50-200 mV·s^−1 for the second electron reduction, and the diffusion constants of the reduced and oxidized states (D^R and D^O) were determined via the Randles-Sevcik equation assuming ideal reversible behavior (FIG. 12D). Potentiostatic EIS measurements were used for determination of a combined diffusional constant of the reduced and oxidized states (D^EIS) and of the standard electron kinetic rate constant (k^o). These EIS measurements were performed at the formal reduction potential (held for 30 seconds before measurement) in which the concentration of the two redox states at the electrode surface were assumed to be the same and equal to half of the initially prepared redox species concentration.
(§2) A glassy carbon working electrode (CH Instruments, 0.0707 cm^2), a saturated calomel reference electrode (SCE, CH Instruments, +0.241 V vs. SHE), and a platinum wire counter electrode were used for both CV and EIS measurements. The working electrode was polished with 1 μm, 0.3 μm, and 0.05 μm alumina slurry successively. All electrodes were rinsed with deionized water in between measurements.
CVs were taken at various scan rates in order to determine the diffusion coefficients via the Randles-Sevcik relation (Eqn. 1) where ip is the peak current in Amps, n is number of electrons transferred, F is Faraday's constant, A is electrode surface area in cm^2, C is the redox species concentration in mole·cm^−3, R is the ideal gas constant, T is temperature, D is the diffusion coefficient, and v is scan rate in V/s. The anodic peak current […] determines the diffusion coefficient of the reduced state (D^R) while the cathodic peak current (ip,a) determines the diffusion coefficient of the oxidized state (D^O). ip=0.4463n^3/2·F^3/2·A·C·R^−1/2·T^−1/2·D^1/2·v^1/2 Eqn. 1

[4] = Electrochemical impedance spectroscopy (EIS); assay type: physicochemical; settings: for EIS D / EIS i^0 / EIS k^0: Example 2
Description: as §1, §2
Potentiostatic EIS measurements were taken at the formal potential in which the reduction and oxidation processes are at equilibrium and the concentrations of the reduced and oxidized states can be assumed equal. This permitted simple calculation of the standard kinetic rate constant (k^o) via Eqn. 2 where R is the ideal gas constant, T is temperature, n is number of electrons, RCT is the charge-transfer resistance, F is Faraday's constant, A is the electrode surface area in cm^2, and C is the concentration of either the oxidized or reduced form at the electrode surface in mole cm^−3 (which is assumed to be half of the initially prepared redox species concentration, C═C^O═C^R=0.5 Cinitial).
A combined diffusion coefficient of the reduced and oxidized state (D^EIS) can also be determined using Eqn. 3, where σ is the Warburg diffusional impedance variable and all other variables have the previously defined meaning.
RCT and σ can be determined by fitting the impedance spectrum to the ideal Randles equivalent circuit for a 3-electrode system where Ru is the uncompensated resistance between the working and reference electrode, RCT is the charge transfer resistance between the working electrode and the redox species, WD is the Warburg diffusional element, and CPE is the constant phase element that represents capacitive behavior of the working electrode.
The raw data was fitted based on this equivalent circuit using the Z-Fitting tool on the PSTrace software and with the Levenberg-Marquardt algorithm across the entire measured frequency range. For the second redox state, D2^EIS were 3.6×10^−6 cm^2·s^−1 and 3.8×10^−6 cm^2·s^−1 and k2^o were 0.13 cm·s^−1 and 0.23 cm·s^−1 for Dex-Vi and BTMAP-Vi, respectively.

[5] = Selemion DSV membrane; cited from earlier work
[6] = Solubility in pure water; assay type: physicochemical; settings: Example 2
Description: A measured amount of Dex-Vi was partially dissolved in pure water. The solution was then centrifuged. The supernatant was decanted, and the volume was measured. The remainder of the solid was dried in a vacuum oven and weighed. Finally, the weight of the remaining Dex-Vi was subtracted from the initial added mass to obtain the amount dissolved in the supernatant, permitting calculation of the maximum soluble concentration.

[7] = Viscosity (rheometer); assay type: physicochemical; settings: 1M, 25° C.
Description: Viscosity measurements were carried out using an Ares G2 rheometer (TA Instruments) with an advanced Peltier system at 25° C.

[8] = Degradation in 1M KOH; assay type: physicochemical
[9] = Table 1, MV; cited from earlier work
[10] = Table 1, MV; cited from earlier work; remark: listed apart in the source

| Structure (SMILES) | Water Solubility [6] | EIS D [4] | EIS i^0 [4] | EIS k^0 [4] | Viscosity at 1M, 25° C. [7] | Degradation in 1M KOH, k [8] | further results |
| --- | --- | --- | --- | --- | --- | --- | --- |
| C[N+](C)(C)CCC[n+]1ccc(-c2cc[n+](CCC[N+](C)(C)C)cc2)cc1.[Cl-].[Cl-].[Cl-].[Cl-] [BTMAP-Vi, bis(3-trimethylammonio)propyl viologen tetrachloride, reference compound] |  |  |  |  |  |  | reported symmetric cell decay rate [1]: 0.0016 % per day; reported concentration when both electrons are utilized ([2]; DeBruler et al., 2017): 0.25 M; Anolyte-limiting RFB Stability [2]: 36.5% decay/year; RFB Viologen Molarity (1e^−) [2]: 1.5; first electron formal potential (E1^0) ([3]; 15 mM in 1.0 M NaCl, 18° C.): −0.349 V vs. SHE; E1^0 ([3]; Table 1): −0.349 V vs. SHE; E2^0 ([3]; Table 1): −0.713 V vs. SHE; reduced state diffusion coefficient (D1^R) ([3]; first redox state, 3+ species): 2.7×10^−6 cm^2·s^−1; oxidized state diffusion coefficient (D1^O) ([3]; first redox state, 4+ species): 2.4×10^−6 cm^2·s^−1; D2^O ([3]; second redox state): 2.3×10^−6 cm^2·s^−1; D2^R ([3]; second redox state): 2.5×10^−6 cm^2·s^−1; second electron formal potential (E2^0) ([3]; vs. SHE, 15 mM in 1.0 M NaCl, 18° C.): −0.713 V; k1^0 ([4]; Table 1): 0.089 cm/s; combined diffusion coefficient (D1^EIS) ([4]; first reduction): 4.1×10^−6 cm^2·s^−1; standard rate constant (k1^0) ([4]; first reduction): 0.089 cm/s; D2^EIS ([4]; second redox state): 3.8×10^−6 cm^2·s^−1; k2^o ([4]; second redox state): 0.23 cm/s; permeance, reported value [5]: 6.7×10^−10 cm^2·s^−1 |
| OCCCC[n+]1ccc(-c2cc[n+](CCCCO)cc2)cc1.[Cl-].[Cl-] [ButOH-Vi] | 1360 mM | 2.36E−05 cm^2/s | 1.25E−05 A | 0.000244 cm/s | 1.6 cP |  |  |
| C[N+](C)(C)CC(O)C[n+]1ccc(-c2cc[n+](CC(O)CO)cc2)cc1.[Cl-].[Cl-].[Cl-] (centres unmarked) [Dex-DiOH-Vi] | 1730 mM | 5.562E−06 cm^2/s | 6.20E−03 A | 0.121 cm/s | 3.9 cP | 4.06e-06 s⁻¹ |  |
| C[N+](C)(C)CC(O)C[n+]1ccc(-c2cc[n+](CC(O)CS(=O)(=O)[O-])cc2)cc1.[Cl-].[Cl-] (centres unmarked) [Dex-SHOP-Vi] | 1270 mM | 4.497E−06 cm^2/s | 1.57E−03 A | 0.0307 cm/s |  |  |  |
| O=S(=O)([O-])CC[n+]1ccc(-c2cc[n+](CC(O)CO)cc2)cc1.[Cl-] (centres unmarked) [DiOH-EtS-Vi] | 1260 mM | 8.134E−06 cm^2/s | 7.76E−03 A | 0.152 cm/s | 2.9 cP | 4.4e-06 s⁻¹ |  |
| O=S(=O)([O-])CC(O)C[n+]1ccc(-c2cc[n+](CC(O)CO)cc2)cc1.[Cl-] (centres unmarked) [DiOH-SHOP-Vi] | <500 mM | 5.419E−06 cm^2/s | 4.06E−03 A | 0.0794 cm/s |  |  |  |
| OCC(O)C[n+]1ccc(-c2cc[n+](CC(O)CO)cc2)cc1.[Cl-].[Cl-] (centres unmarked) [DiOH-Vi] | 1990 mM | 6.622E−06 cm^2/s | 1.14E−03 A | 0.0222 cm/s | 3.0 cP | 2.296e-06 s⁻¹ |  |
| OCC[n+]1ccc(-c2cc[n+](CCO)cc2)cc1.[Cl-].[Cl-] [EtOH-Vi] | 2510 mM | 9.868E−06 cm^2/s | 4.53E−03 A | 0.0885 cm/s | 2.4 cP |  |  |
| O=S(=O)([O-])CC[n+]1ccc(-c2cc[n+](CCS(=O)(=O)[O-])cc2)cc1 [EtS-Vi] | 530 mM | 5.2921E−06 cm^2/s | 3.47E−03 A | 0.0677 cm/s |  |  |  |
| C[n+]1ccc(-c2cc[n+](C)cc2)cc1 [MV] |  |  |  |  |  |  | Anolyte-limiting RFB Stability [2]: >547.5%* % decay/year; RFB Viologen Molarity (1e^−) [2]: 0.5; E1^0 [9]: −0.450/NA V vs. SHE; k1^0 [10]: 0.00028 cm/s |
